Laboratory results taken from the NIST ThermoML archive (doi:10.1007/s10765-007-0223-x).

Assay: xn = mol fraction of the nth substance listed
Conditions: 101 kPa, Liquid; for speed of sound: Single path-length method

CCc1ccccc1 [ethylbenzene] + COC(C)(C)C
Conditions	mass density, 288.15 K [kg/m3]	mass density, 290.65 K [kg/m3]	mass density, 293.15 K [kg/m3]	mass density, 295.65 K [kg/m3]	speed of sound, 288.15 K [m/s]	speed of sound, 290.65 K [m/s]	speed of sound, 293.15 K [m/s]	speed of sound, 295.65 K [m/s]
x2 = 0	871.245	869.052	866.856	864.66	1360.7	1349.9	1339.4	1328.9
x2 = 0.046	866.075	863.868	861.653	859.445	1348.3	1337.6	1326.8	1316.3
x2 = 0.106	859.155	856.925	854.698	852.469	1334.4	1323.4	1312.7	1302
x2 = 0.212	846.925	844.671	842.406	840.144	1307.2	1296.3	1285.5	1274.8
x2 = 0.299	836.536	834.249	831.951	829.658	1284.6	1273.7	1262.8	1252
x2 = 0.402	823.953	821.631	819.3	816.97	1256.7	1245.6	1234.6	1223.7
x2 = 0.503	812.763	810.408	808.048	–	1231.4	1220.2	1209.2	1198.2
x2 = 0.6	799.067	796.665	794.26	–	1201.3	1190.1	1179	1167.8
x2 = 0.701	785.93	783.488	781.04	–	1171.9	1160.5	1149.3	1138.1
x2 = 0.822	769.744	767.243	764.736	–	1136.2	1124.5	1113.2	1101.8
x2 = 0.899	759.058	756.516	753.964	–	1112.7	1100.7	1089.2	1077.7
x2 = 0.948	752.102	749.532	746.956	–	1097.3	1085.4	1073.8	1062.3
